The source of these data is patent publication US20260098026A1, “M4 ACTIVATORS/MODULATORS AND USES THEREOF” (Cerevel Therapeutics, LLC, priority 2022, published 2026).

SMILES strings stand for the structures.

What all share (format): cell-based
Assay [1] concerns the target T1, M5 muscarinic acetylcholine receptor (mAChR) (Homo sapiens, UniProt P08912).
T1 construct: expressed in transfected cells; host or cells: CHO-K1
T1 sequence (P08912 1-532): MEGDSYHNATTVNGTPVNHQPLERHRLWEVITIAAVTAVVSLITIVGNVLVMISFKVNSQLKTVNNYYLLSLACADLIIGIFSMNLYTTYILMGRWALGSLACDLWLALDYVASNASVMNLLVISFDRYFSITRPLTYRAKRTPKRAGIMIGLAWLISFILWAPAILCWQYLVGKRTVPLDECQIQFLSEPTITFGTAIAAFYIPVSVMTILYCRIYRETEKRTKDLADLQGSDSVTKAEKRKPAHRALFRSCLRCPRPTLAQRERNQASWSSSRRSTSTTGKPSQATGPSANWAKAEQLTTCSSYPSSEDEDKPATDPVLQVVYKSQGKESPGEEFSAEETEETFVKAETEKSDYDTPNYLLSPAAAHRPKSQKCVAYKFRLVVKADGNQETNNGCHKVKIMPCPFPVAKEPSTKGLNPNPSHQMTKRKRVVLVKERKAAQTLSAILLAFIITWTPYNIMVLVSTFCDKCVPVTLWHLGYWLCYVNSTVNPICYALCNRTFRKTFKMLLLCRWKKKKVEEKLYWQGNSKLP
The experiment in a line: FLIPR calcium assay (Fluo 8), M5-overexpressing CHO-K1 cells. As for the experimental part:
(§1) Stimulation of a Gq-coupled G-protein coupled receptors (GPCRs), result in an efflux of calcium from the endoplasmic reticulum to the cytoplasm (Berridge, 1993), thus rendering this assay appropriate for the assessment of M1, M3 and M5 receptors. CHO-K1 cells overexpressing the M1, M3, or M5 muscarinic acetylcholine receptor (mAChR) were dispensed at 15,000 cells per well in 30 μl volume to 384-well plates and grown overnight at 37° C. in a 5% CO2 atmosphere. Fluo-8 Solution, 10 μl per well, was added to each well and incubated for 30 minutes at 37° C. in a 5% CO2 atmosphere. Compounds diluted in Hanks' balanced salt solution (HBSS) were transferred to the cell assay plate at 10 μl per well, and then read on a FLIPR instrument. EC50 and Emax figures were calculated from the resulting data for each receptor subtype.

Assay [2] deals with T2, M3 muscarinic acetylcholine receptor (mAChR) (Homo sapiens, UniProt P20309).
T2 construct: expressed in transfected cells; host or cells: CHO-K1
The experiment in a line: FLIPR calcium assay (Fluo 8), M3-overexpressing CHO-K1 cells. The method in brief: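 CHO-K1 cells overexpressing each human receptor seeded at 15,000 per well, grown overnight at 37° C., 5% CO2, then loaded with Fluo-8 for 30 min. Compounds in HBSS added and calcium response read on FLIPR; EC50 and Emax calculated per subtype.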

The next assay concerns the target T3, M4 mAChR (Homo sapiens, UniProt P08173).
T3 construct: expressed in transfected cells; host or cells: CHO-K1
T3 sequence (P08173 1-479): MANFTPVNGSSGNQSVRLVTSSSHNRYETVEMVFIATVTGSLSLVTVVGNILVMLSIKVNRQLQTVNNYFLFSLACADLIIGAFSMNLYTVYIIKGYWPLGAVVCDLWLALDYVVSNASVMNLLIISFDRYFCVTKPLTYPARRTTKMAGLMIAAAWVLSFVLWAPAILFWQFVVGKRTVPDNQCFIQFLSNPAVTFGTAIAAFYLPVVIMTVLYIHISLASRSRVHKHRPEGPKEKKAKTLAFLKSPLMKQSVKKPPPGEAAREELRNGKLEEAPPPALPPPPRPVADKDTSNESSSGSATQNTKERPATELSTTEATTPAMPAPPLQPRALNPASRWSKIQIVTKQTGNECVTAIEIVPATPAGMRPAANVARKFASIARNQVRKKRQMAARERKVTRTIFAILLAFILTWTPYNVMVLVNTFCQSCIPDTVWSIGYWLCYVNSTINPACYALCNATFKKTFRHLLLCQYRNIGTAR
The experiment in a line: cAMP TR-FRET assay with forskolin, M4-overexpressing CHO-K1 cells. The method in brief: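 CHO-K1 cells overexpressing the receptor were stimulated with forskolin to raise cAMP, so that Gi-mediated agonist decreases could be measured. cAMP was quantified by TR-FRET competition between cellular cAMP and labelled donor for anti-cAMP antibody, giving potency and efficacy.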
(In general: TR-FRET usually uses a lanthanide donor and a delayed reading to cut background.)

Assay [3] has as its target T4, M1 muscarinic acetylcholine receptor (mAChR) (Homo sapiens, UniProt P11229).
T4 construct: expressed in transfected cells; host or cells: CHO-K1
T4 sequence (P11229 1-460): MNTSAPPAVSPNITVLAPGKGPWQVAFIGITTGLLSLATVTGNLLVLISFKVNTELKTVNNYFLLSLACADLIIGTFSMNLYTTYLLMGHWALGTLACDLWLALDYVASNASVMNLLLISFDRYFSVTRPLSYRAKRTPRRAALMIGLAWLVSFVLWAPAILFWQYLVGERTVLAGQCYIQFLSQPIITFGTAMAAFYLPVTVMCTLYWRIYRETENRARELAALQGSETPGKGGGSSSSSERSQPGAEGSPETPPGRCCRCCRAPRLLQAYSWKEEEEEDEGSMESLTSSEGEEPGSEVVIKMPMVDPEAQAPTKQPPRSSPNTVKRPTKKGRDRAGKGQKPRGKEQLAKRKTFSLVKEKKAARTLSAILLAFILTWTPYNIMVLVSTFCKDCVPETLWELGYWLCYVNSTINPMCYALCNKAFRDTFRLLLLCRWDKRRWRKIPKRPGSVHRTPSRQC
Put plainly: FLIPR calcium assay (Fluo 8), M1-overexpressing CHO-K1 cells. How it is done: as §1

A further assay addresses T5, M2 mAChR (Homo sapiens, UniProt P08172).
T5 construct: expressed in transfected cells; host or cells: CHO-K1
T5 sequence (P08172 1-466): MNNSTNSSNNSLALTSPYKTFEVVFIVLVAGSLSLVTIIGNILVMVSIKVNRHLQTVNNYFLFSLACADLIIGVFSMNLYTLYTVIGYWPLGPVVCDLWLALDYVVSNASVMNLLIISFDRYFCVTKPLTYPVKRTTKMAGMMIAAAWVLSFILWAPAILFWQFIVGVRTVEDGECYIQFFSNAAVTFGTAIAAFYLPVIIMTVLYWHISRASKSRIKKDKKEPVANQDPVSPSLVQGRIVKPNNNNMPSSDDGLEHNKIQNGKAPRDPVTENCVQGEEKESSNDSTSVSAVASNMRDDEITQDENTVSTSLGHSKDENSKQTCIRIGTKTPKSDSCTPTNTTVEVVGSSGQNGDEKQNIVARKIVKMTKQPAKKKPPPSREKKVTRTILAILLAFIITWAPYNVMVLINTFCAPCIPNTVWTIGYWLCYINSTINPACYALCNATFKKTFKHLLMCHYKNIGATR
Put plainly: cAMP TR-FRET assay with forskolin, M2-overexpressing CHO-K1 cells. The source says: The M2 and M4 mACh receptors are Gi-coupled receptors which, upon activation, produce a decrease in cAMP. Assays were developed that measured the potency and efficacy of compounds at the M2 or M4 mAChR using M2- or M4-overexpressing CHO-K1 cell lines. Time-resolved fluorescence resonance energy transfer (TR-FRET) technology was used, where signal occurs as a result of transfer of energy if the donor molecule is in close proximity to an acceptor molecule when the molecules have bound to the molecule of interest. The cAMP detection is a competition binding assay, where cAMP produced by cells competes for binding with the labeled donor molecule to the anti-cAMP acceptor antibody. Due to the low basal levels of cAMP in the CHO-K1 cell line, forskolin was used to increase cAMP levels to enable assessment of agonist activity at the mAChR of interest.

T2 sequence (P20309 whole entry): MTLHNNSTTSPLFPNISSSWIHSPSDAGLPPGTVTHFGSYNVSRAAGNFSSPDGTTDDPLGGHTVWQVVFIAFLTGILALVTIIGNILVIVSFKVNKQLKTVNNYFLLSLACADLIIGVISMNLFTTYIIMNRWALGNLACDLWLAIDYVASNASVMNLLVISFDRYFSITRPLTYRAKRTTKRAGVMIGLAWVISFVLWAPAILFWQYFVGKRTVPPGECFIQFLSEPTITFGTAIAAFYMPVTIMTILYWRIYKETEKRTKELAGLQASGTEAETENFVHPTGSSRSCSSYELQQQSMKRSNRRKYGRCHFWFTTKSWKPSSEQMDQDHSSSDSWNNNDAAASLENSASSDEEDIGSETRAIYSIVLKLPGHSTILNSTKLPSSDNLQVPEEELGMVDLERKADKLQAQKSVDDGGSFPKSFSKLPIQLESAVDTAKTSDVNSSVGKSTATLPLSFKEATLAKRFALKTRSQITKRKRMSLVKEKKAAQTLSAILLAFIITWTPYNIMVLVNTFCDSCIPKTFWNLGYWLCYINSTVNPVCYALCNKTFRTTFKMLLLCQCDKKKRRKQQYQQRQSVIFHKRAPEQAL

By Emax is commonly meant the greatest response seen or fitted, relative to the assay's reference. The term EC50 denotes the midpoint of the concentration-response curve. With `CCNc1ncc(-c2ncc(F)cc2N2CCN([C@@H]3CCC4(C3)CN(C(=O)OCC)C4)CC2)cn1` [Compound A80], the maximum response (Emax) in assay [1] (FLIPR calcium) fell in the range of 19 to 49.9%; at M4 mAChR (cAMP TR-FRET with forskolin) it was 80 to 100%; in assay [3] (FLIPR calcium), 19 to 49.9%. In assay [2] (FLIPR calcium), the EC50 was above 10 µM.
For the compound `CCOC(=O)N1CC2(CC[C@@H](N3CCN(c4cc(F)cnc4-c4ccc(=O)[nH]c4)CC3)C2)C1` [Compound A210], the Emax in assay [1] (FLIPR) is 19 to 49.9%; at M4 mAChR (cAMP assay), 80 to 100%; in assay [3] (FLIPR) it was 50 to 79.9%. Besides, in assay [2] (FLIPR), the EC50 was above 10 µM.
As to `CCOC(=O)N1CC2(CC[C@@H](N3CCN(c4cc(F)cnc4C4CCOCC4)CC3)C2)C1` [Compound A7, ethyl (6R)-6-[4-(5-fluoro-2-tetrahydropyran-4-yl-3-pyridyl)piperazin-1-yl]-2-azaspiro[3.4]octane-2-carboxylate], the “M2 EC50 (nM)” value on M2 mAChR (cAMP TR-FRET with forskolin) was “I.A”. The 50% effective concentration (EC50) in assay [2] (FLIPR calcium) was above 10 µM. This compound displayed a maximal effect (Emax) at M4 mAChR (cAMP TR-FRET with forskolin) of 80 to 100%.
For the compound `CCOC(=O)N1CC2(CC[C@@H](N3CCN(c4cc(F)cnc4-c4cnc(SC)nc4)CC3)C2)C1` [Compound A63], the results for the Emax (in assay [1] (FLIPR calcium); on M4 mAChR (cAMP TR-FRET with forskolin); in assay [3] (FLIPR calcium)) were 19 to 49.9%, 80 to 100% and 19 to 49.9%, respectively. Further, the EC50 in assay [2] (FLIPR calcium) is above 10 µM.
For the compound `CCOC(=O)N1CC2(CC[C@@H](N3CCN(c4cc(F)cnc4-c4cnn(CC(C)C)c4)CC3)C2)C1` [Compound A71], the results for the Emax (in assay [1] (FLIPR calcium); on M4 mAChR (cAMP TR-FRET with forskolin)) were 19 to 49.9% and 80 to 100%, respectively. Further, in assay [2] (FLIPR calcium), the EC50 was above 10 µM.
For `CCOC(=O)N1CC2(CC[C@@H](N3CCN(c4cc(F)cnc4-c4cnn(C(F)F)c4)CC3)C2)C1` [Compound A194], the figures for the Emax at M2 mAChR (cAMP assay) and at M4 mAChR (cAMP assay) were below 19% and 80 to 100%, respectively. Besides, the 50% effective concentration (EC50) in assay [2] (FLIPR) was above 10 µM.
On to `CCOC(=O)N1CC2(CC[C@@H](N3CCN(c4cc(F)cnc4-c4c[nH]c(=O)c(F)c4)CC3)C2)C1` [Compound A206], for which the Emax in assay [1] (FLIPR) was 19 to 49.9%; at M4 mAChR (cAMP assay), 80 to 100%; in assay [3] (FLIPR) it was 19 to 49.9%. In addition, the EC50 in assay [2] (FLIPR) was above 10 µM.
